Here are results for six molecules from patent publication US20250154144A1 (CHILDREN'S HOSPITAL MEDICAL CENTER, priority 2021, published 2025).

Where two headings read alike, the source gives them in different places. Where only a bound is given, the exact number is not on record here.

In experiment [1] the target is T1, FLT3 (Homo sapiens, UniProt P36888).
T1 sequence (P36888 27-993): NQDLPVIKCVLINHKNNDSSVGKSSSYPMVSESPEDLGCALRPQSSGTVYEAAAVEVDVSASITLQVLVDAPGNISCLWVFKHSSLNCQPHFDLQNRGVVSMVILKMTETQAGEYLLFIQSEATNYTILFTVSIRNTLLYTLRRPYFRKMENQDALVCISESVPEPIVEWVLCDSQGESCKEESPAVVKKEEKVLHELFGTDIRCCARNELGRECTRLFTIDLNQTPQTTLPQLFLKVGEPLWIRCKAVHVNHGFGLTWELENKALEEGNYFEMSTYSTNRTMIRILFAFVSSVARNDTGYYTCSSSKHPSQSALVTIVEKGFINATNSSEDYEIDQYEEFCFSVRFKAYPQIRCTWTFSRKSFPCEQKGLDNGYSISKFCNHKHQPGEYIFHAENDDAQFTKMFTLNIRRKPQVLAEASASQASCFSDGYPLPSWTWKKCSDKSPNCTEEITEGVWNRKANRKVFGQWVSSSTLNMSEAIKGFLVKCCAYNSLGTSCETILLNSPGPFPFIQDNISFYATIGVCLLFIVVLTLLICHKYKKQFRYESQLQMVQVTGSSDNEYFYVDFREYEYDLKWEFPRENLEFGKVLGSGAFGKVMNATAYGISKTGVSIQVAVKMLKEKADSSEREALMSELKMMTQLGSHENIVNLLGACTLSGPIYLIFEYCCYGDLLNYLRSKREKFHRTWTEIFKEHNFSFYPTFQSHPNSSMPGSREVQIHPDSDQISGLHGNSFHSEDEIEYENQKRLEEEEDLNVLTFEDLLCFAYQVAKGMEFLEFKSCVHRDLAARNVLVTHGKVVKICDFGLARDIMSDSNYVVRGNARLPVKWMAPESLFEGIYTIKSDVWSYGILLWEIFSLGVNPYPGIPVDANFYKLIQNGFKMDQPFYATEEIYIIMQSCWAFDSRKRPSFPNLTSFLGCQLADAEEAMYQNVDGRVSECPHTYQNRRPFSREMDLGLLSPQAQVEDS
Nature of the experiment: Reaction Biology NanoBRET target engagement assay in HEK-293 cells, FLT3. The settings on record: NanoBRET FLT3 IC50, HEK-293 cells. (In general: BRET reads energy transfer from a luciferase to a nearby fluorophore.)

The subject of a further experiment is MOLM14 D835Y cells. Nature of the experiment: cells. The format is cell-based. The settings on record: Homo sapiens, MOLM-14, 48 h, 48 hours, Cell Titer Glo; read-out: MOLM14 D835Y IC50.
The target in experiment [2] is T2, IRAK4 (Homo sapiens, UniProt Q9NWZ3).
T2 sequence (Q9NWZ3 1-460): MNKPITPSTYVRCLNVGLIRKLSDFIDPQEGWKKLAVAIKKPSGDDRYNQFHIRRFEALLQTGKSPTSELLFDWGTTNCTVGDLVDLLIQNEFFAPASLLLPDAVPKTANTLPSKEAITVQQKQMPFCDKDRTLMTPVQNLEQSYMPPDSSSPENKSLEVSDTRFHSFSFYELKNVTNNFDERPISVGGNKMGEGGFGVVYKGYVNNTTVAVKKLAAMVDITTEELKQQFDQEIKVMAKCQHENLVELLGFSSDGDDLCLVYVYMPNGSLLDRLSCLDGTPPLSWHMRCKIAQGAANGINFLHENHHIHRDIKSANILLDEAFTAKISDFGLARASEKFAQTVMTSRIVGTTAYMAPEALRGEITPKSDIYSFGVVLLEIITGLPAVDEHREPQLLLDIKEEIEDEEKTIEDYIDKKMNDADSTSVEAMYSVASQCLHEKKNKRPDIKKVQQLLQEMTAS
Nature of the experiment: RBC HotSpot Kinase Assay, IRAK4. The settings on record: IRAK4 IC50.

A further experiment deals with IRAK1 (Homo sapiens, UniProt P51617). Nature of the experiment: RBC HotSpot Kinase Assay, IRAK1. The settings on record: IRAK1 IC50.
IRAK1, sequence (P51617 whole entry): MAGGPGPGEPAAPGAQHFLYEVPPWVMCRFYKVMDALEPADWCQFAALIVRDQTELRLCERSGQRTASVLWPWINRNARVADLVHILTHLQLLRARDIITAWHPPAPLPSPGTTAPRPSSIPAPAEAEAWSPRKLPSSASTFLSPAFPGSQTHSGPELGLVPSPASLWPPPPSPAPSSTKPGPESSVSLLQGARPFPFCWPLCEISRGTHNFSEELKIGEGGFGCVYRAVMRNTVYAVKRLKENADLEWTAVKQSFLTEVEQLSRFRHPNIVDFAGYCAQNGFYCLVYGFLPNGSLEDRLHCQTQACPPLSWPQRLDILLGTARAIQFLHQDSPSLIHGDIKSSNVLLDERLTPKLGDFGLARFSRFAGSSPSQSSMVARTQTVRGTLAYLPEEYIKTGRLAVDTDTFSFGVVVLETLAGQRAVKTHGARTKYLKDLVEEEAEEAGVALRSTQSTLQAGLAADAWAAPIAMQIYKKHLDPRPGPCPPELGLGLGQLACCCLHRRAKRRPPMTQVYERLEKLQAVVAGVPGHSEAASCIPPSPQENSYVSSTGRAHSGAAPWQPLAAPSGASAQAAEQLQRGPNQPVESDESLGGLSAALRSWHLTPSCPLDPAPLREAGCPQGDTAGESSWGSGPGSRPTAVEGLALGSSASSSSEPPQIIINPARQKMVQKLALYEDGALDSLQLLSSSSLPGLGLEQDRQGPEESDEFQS
The next experiment deals with MOLM14 F691L cells. Nature of the experiment: cells. The format is cell-based. The conditions noted are these: Homo sapiens, MOLM-14, 48 h, 48 hours, Cell Titer Glo; read-out: MOLM14 F691L IC50. (In general: Cellular ATP, detected with luciferase, serves as a proxy for viable cell number.)
The target of experiment [3] is T2, IRAK4. Nature of the experiment: Reaction Biology NanoBRET target engagement assay in HEK-293 cells, IRAK4. The conditions noted are these: NanoBRET IRAK4 IC50, HEK-293 cells.
In experiment [4] the target is T3, FLT3 (Homo sapiens, UniProt P36888).
T3 sequence (P36888 610-943 limits assumed): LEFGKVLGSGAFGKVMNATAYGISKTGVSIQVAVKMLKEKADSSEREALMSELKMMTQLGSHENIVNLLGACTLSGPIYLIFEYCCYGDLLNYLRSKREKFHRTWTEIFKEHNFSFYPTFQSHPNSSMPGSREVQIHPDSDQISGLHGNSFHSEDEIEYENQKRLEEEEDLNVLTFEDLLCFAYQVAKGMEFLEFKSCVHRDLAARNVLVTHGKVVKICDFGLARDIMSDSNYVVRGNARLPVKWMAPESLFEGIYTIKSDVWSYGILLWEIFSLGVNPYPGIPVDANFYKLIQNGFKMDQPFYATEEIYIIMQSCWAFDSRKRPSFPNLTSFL
Nature of the experiment: RBC HotSpot Kinase Assay, FLT3. The settings on record: FLT3 IC50.

In another experiment the test system is THP1 cells. Nature of the experiment: Combination drug screening, Cell Titer Glo, 10 × 10 matrix, THP1 cells. Type of experiment: cell-based. The settings on record: THP1 cells; for Excess HSA Score: 10 × 10.
The next experiment has as its system MOLM14(D835Y) cells. Type of experiment: cell-based. The settings on record: MOLM14(D835Y) cells; for Excess HSA Score: 10 × 10.
Setting [5] is: combination with (+)-BAY-1251152.
The mark [6] stands for this setting: combination with Eprenetapopt/APR-246.
[7] abbreviates: combination with Venetoclax (ABT-199).

One may read the IC50 as the concentration that gives 50% inhibition. `FC(F)Oc1ccn2c(-c3cncc(N[C@H]4CNCC[C@@H]4F)n3)cnc2c1` [Compound 15, 6-(7-(difluoromethoxy)imidazo [1,2-a]pyridin-3-yl)-N-((3S,4S)-4-fluoropiperidin-3-yl)pyrazin-2-amine]: the concentration for half-maximal inhibition (IC50) against FLT3 [1] was found to be 367 nM; in the experiment on MOLM14 D835Y cells, 77 nM; at IRAK4 [2] it was 4 nM; against IRAK1 it was 69 nM; in the experiment with MOLM14 F691L cells, 154 nM; on IRAK4 [3] it was 10 nM. Further, at FLT3 [4], the IC50 is less than 0.5 nM.

On to `COc1cc2ncc(-c3cncc(N[C@H]4CNCC[C@@H]4F)n3)n2cc1C(C)(C)O` [Compound 21, 2-(3-(6-(((3S,4S)-4-fluoropiperidin-3-yl)amino)pyrazin-2-yl)-7-methoxyimidazo[1,2-a]pyridin-6-yl)propan-2-ol], for which the IC50 against FLT3 [1] was 159 nM; in the experiment on MOLM14 D835Y cells, 27 nM; at IRAK4 [2], less than 0.5 nM; against IRAK1 it was 0.5 nM; with MOLM14 F691L cells, 34 nM; against IRAK4 [3], less than 0.5 nM. On FLT3 [4], this molecule displayed an IC50 of less than 0.5 nM.

As to `CC(C)Oc1ccn2c(-c3ccnc(N[C@H]4CNC[C@@H]4F)n3)cnc2c1` [Compound 25, N-((3S,4S)-4-fluoropyrrolidin-3-yl)-4-(7-isopropoxyimidazo[1,2-a]pyridin-3-yl)pyrimidin-2-amine], the IC50 was 34 nM on FLT3 [1]; 53 nM in the experiment with MOLM14 D835Y cells; 3 nM against IRAK4 [2]; 24 nM against IRAK1; 596 nM in the experiment on MOLM14 F691L cells; less than 0.5 nM at IRAK4 [3]. Further, on FLT3 [4], the IC50 stood at 0.8 nM.

As for `CC(C)Oc1ccn2c(-c3ccnc(N[C@@H]4CCCNC4)n3)cnc2c1` [Compound 26, (R)-4-(7-isopropoxyimidazo[1,2-a]pyridin-3-yl)-N-(piperidin-3-yl)pyrimidin-2-amine], the IC50 is 2 nM on FLT3 [1]; 19 nM in the experiment with MOLM14 D835Y cells; 2 nM on IRAK4 [2]; 53 nM on IRAK1; 168 nM in the experiment with MOLM14 F691L cells; less than 0.5 nM on IRAK4 [3]. On FLT3 [4], this molecule showed an IC50 of less than 0.5 nM.

With `COc1ccn2c(-c3ccnc(N[C@H]4CNC[C@@H]4F)n3)cnc2c1` [Compound 28, N-((3S,4S)-4-fluoropyrrolidin-3-yl)-4-(7-methoxyimidazo[1,2-a]pyridin-3-yl)pyrimidin-2-amine], the IC50 was 65 nM on FLT3 [1]; 19 nM in the experiment with MOLM14 D835Y cells; 0.8 nM against IRAK4 [2]; 6 nM against IRAK1; 307 nM with MOLM14 F691L cells; 0.7 nM at IRAK4 [3]. The molecule further had an IC50 on FLT3 [4] of less than 0.5 nM. Besides, the “Excess HSA Score” value is −347.5 in the experiment with THP1 cells (setting [5]); 401.8 in the experiment with THP1 cells (combination with AMG-232); −208.6 with THP1 cells (combination with AZD-5363); −126.4 in the experiment with THP1 cells (setting [6]); 313 in the experiment on THP1 cells (combination with Ivosidenib); 486.7 in the experiment on THP1 cells (combination with Lenalidomide). The “Excess HSA Score” value with THP1 cells (combination with Palbociclib) is listed as −270.8; in the experiment with THP1 cells (combination with Prednisolone) it was 381.4; with THP1 cells (combination with SNDX-5613), 492.2; in the experiment on THP1 cells (combination with TNO-155), 98.5766; in the experiment on THP1 cells (combination with Trametinib) it was −880.8; in the experiment on THP1 cells (combination with Ulixertinib) it was −60.25. The “Excess HSA Score” value with THP1 cells (setting [7]) is −1412; in the experiment on MOLM14(D835Y) cells (setting [5]), −477; in the experiment with MOLM14(D835Y) cells (combination with AMG-232), −628.3; in the experiment on MOLM14(D835Y) cells (combination with AZD-5363), −377.1; with MOLM14(D835Y) cells (setting [6]), 330.3; with MOLM14(D835Y) cells (combination with Ivosidenib), −92.39. The “Excess HSA Score” value in the experiment with MOLM14(D835Y) cells (combination with Lenalidomide) is 340.1; in the experiment with MOLM14(D835Y) cells (combination with Palbociclib), −207.7; with MOLM14(D835Y) cells (combination with Prednisolone), −600.8; in the experiment on MOLM14(D835Y) cells (combination with SNDX-5613) it was 49.85; in the experiment with MOLM14(D835Y) cells (combination with TNO-155), −593.8; in the experiment on MOLM14(D835Y) cells (combination with Trametinib), 115.3. Besides, the “Excess HSA Score” value is listed as 57.98 with MOLM14(D835Y) cells (combination with Ulixertinib) and −1089 with MOLM14(D835Y) cells (setting [7]). In addition, the Comments entry with THP1 cells (combination with TNO-155) is on record as “Antagonistic”; in the experiment with THP1 cells (setting [7]) it was “Synergistic”; in the experiment with MOLM14(D835Y) cells (combination with SNDX-5613) it was “Antagonistic”; in the experiment on MOLM14(D835Y) cells (setting [7]), “Synergistic”.

For the molecule `F[C@H]1CCNC[C@@H]1Nc1nccc(-c2cnc3cc(OC4CC4)ccn23)n1` [Compound 39, 4-(7-cyclopropoxyimidazo [1,2-a]pyridin-3-yl)-N-((3S,4S)-4-fluoropiperidin-3-yl)pyrimidin-2-amine], the IC50 is 15 nM against FLT3 [1]; 24 nM in the experiment on MOLM14 D835Y cells; 2 nM against IRAK4 [2]; 11 nM at IRAK1; 172 nM in the experiment on MOLM14 F691L cells; 0.8 nM on IRAK4 [3]. This molecule also came in with an IC50 against FLT3 [4] of less than 0.5 nM.
